Reference: patent US5210193A, “Piperazine derivatives” (American Cyanamid Company, priority 1990, dated 1993)
In brackets after ≈: the same amount, converted by molar mass.

Assays:
Test in all cases: in vitro antibacterial MIC, agar plate dilution
Assay type in all cases: cell-based
[1] = system: Enterobacter aerogenes VGH 84-36; conditions: Klebsiella aerogenes, VGH8436, 18 hours, 35° C., read-out: MIC
Protocol: (§1) The in vitro antimicrobial spectrum of the compounds of ths invention were determined by the agar plate dilution method with Mueller-Hinton agar and an inoculum of each test organism of approximately 10^4 colony forming units delivered by the Steers replicating device. The minimal inhibitory concentration (MIC) in mcg/ml is defined as the lowest concentration of test compound that inhibited visible growth after 18 hours incubation at 35° C. Results are given in Table I, with the test compounds identified by the number of their hereinafter described examples.

[2] = system: Enterobacter cloacae K 84-10; conditions: Enterobacter cloacae, K8410, 18 h, 35° C., read-out: MIC
Protocol: as §1

[3] = system: Enterobacter cloacae VGH 84-37; conditions: Enterobacter cloacae, VGH8437, 18 h, 35° C., read-out: MIC
Protocol: as §1

[4] = system: Escherichia coli ATCC 25922; conditions: Escherichia coli, ATCC25922, 18 h, 35° C., read-out: MIC
Protocol: as §1

[5] = system: Escherichia coli CMC 84-11; conditions: Escherichia coli, CMC8411, 18 h, 35° C., read-out: MIC
Protocol: as §1

[6] = system: Escherichia coli CMC 84-16; conditions: Escherichia coli, CMC8416, 18 h, 35° C., read-out: MIC
Protocol: as §1

[7] = system: Escherichia coli NAR 311; conditions: NAR311, 18 hours, 35° C., read-out: MIC
Protocol: as §1

[8] = system: Escherichia coli PRNT 311; conditions: PRNT311, 18 hours, 35° C., read-out: MIC
Protocol: as §1

[9] = system: Klebsiella oxytoca MOR 84-28; conditions: MOR8428, 18 hours, 35° C.
Protocol: as §1

[10] = system: Klebsiella pneumoniae AD; conditions: Klebsiella pneumoniae, 18 h, 35° C., read-out: MIC
Protocol: as §1

[11] = system: Klebsiella pneumoniae MOR 84-4; conditions: Klebsiella pneumoniae, MOR844, 18 h, 35° C., read-out: MIC
Protocol: as §1

[12] = system: Morganella morganii CMC 84-37; conditions: Morganella morganii, CMC8437, 18 h, 35° C., read-out: MIC
Protocol: as §1

[13] = system: Morganella morganii VGH 84-11; conditions: VGH8411, 18 hours, 35° C., read-out: MIC
Protocol: as §1

[14] = system: Proteus rettgeri CMC 84-41; conditions: Providencia rettgeri, CMC8441, 18 h, 35° C., read-out: MIC
Protocol: as §1

[15] = system: Pseudomonas aeruginosa LL-1244; conditions: Pseudomonas aeruginosa, LL1244, 18 h, 35° C., read-out: MIC
Protocol: as §1

[16] = system: Pseudomonas aeruginosa VGH 84-4; conditions: Pseudomonas aeruginosa, VGH844, 18 h, 35° C., read-out: MIC
Protocol: as §1

[17] = system: Serratia marcescens F 0-35; conditions: Serratia marcescens, F035, 18 h, 35° C., read-out: MIC
Protocol: as §1

[18] = system: Serratia marcescens K 84-18; conditions: Serratia marcescens, K8418, 18 h, 35° C., read-out: MIC
Protocol: as §1

[19] = system: Staphylococcus Spp saprophiticus VGH 84-50; conditions: 18 hours, 35° C., read-out: MIC
Protocol: as §1

[20] = system: Staphylococcus aureus ATTC 29213; conditions: Staphylococcus aureus, ATTC29213, 18 h, 35° C., read-out: MIC
Protocol: as §1

[21] = system: Staphylococcus aureus CMC 83-127; conditions: Staphylococcus aureus, CMC83127, 18 h, 35° C., read-out: MIC
Protocol: as §1

[22] = system: Staphylococcus aureus CMC 83-128; conditions: CMC83128, 18 hours, 35° C., read-out: MIC
Protocol: as §1

[23] = system: Staphylococcus aureus Smith; conditions: Staphylococcus aureus, 18 h, 35° C., read-out: MIC
Protocol: as §1

[24] = system: Staphylococcus aureus VGH 84-45; conditions: Staphylococcus aureus, VGH8445, 18 h, 35° C., read-out: MIC
Protocol: as §1

[25] = system: Staphylococcus aureus VGH 84-46; conditions: Staphylococcus aureus, VGH8446, 18 h, 35° C., read-out: MIC
Protocol: as §1

[26] = system: Staphylococcus epidermidis CMC 83-135; conditions: CMC83135, 18 hours, 35° C., read-out: MIC
Protocol: as §1

[27] = system: Staphylococcus epidermidis IO 83-58; conditions: IO8358, 18 hours, 35° C., read-out: MIC
Protocol: as §1

[28] = system: Staphylococcus epidermidis VGH 84-40; conditions: VGH8440, 18 hours, 35° C., read-out: MIC
Protocol: as §1

[29] = system: Streptococcus faecalis ATTC 29212; conditions: Enterococcus faecalis, ATTC29212, 18 hours, 35° C., read-out: MIC
Protocol: as §1

[30] = system: Streptococcus faecalis VGH 84-65; conditions: Enterococcus faecalis, VGH8465, 18 h, 35° C., read-out: MIC
Protocol: as §1

MIC [1] [µg/mL] | MIC [2] [µg/mL] | MIC [3] [µg/mL] | MIC [4] [µg/mL] | MIC [5] [µg/mL] | MIC [6] [µg/mL] | MIC [7] [µg/mL] | MIC [8] [µg/mL] | MIC [9] [µg/mL] | MIC [10] [µg/mL] | MIC [11] [µg/mL] | MIC [12] [µg/mL] | MIC [13] [µg/mL] | MIC [14] [µg/mL] | MIC [15] [µg/mL] | MIC [16] [µg/mL] | MIC [17] [µg/mL] | MIC [18] [µg/mL] | MIC [19] [µg/mL] | MIC [20] [µg/mL] | SMILES | also measured
> 256 | > 256 | > 256 | > 256 | > 256 | > 256 | > 256 | > 256 | > 256 | > 256 | > 256 | > 256 | > 256 | > 256 | > 256 | > 256 | > 256 | > 256 | > 256 | > 256 | CCCCCCCCCCCCOCC1CN(c2cc3c(cc2F)c(=O)c(C(=O)O)cn3CC)CCN1C (stereo not drawn) [Example 75, 7-[3-[(Dodecyloxy)methyl]-4-methyl-1-piperazinyl]-1-ethyl-6-fluoro-1,4-dihydro-4-oxo-3-quinolinecarboxylic acid] | MIC [21]: > 256 µg/mL; MIC [22]: > 256 µg/mL; MIC [23]: > 256 µg/mL; MIC [24]: > 256 µg/mL; MIC [25]: > 256 µg/mL; MIC [26]: > 256 µg/mL; MIC [27]: > 256 µg/mL; MIC [28]: > 256 µg/mL; MIC [29]: > 256 µg/mL; MIC [30]: > 256 µg/mL
0.03 (≈ 0.0854 µM) | 0.03 (≈ 0.0854 µM) | 0.03 (≈ 0.0854 µM) | < 0.015 | 0.03 (≈ 0.0854 µM) | < 0.015 | 0.5 (≈ 1.42 µM) | 0.03 (≈ 0.0854 µM) | 0.06 (≈ 0.171 µM) | 0.06 (≈ 0.171 µM) | 0.06 (≈ 0.171 µM) | 0.06 (≈ 0.171 µM) | 0.06 (≈ 0.171 µM) | 0.12 (≈ 0.342 µM) | 4 (≈ 11.4 µM) | 0.5 (≈ 1.42 µM) | 0.12 (≈ 0.342 µM) | 0.06 (≈ 0.171 µM) | 2 (≈ 5.69 µM) | 0.5 (≈ 1.42 µM) | CCn1cc(C(=O)O)c(=O)c2cc(F)c(N3CCN(C)CC3)c(F)c21 [Example 61, 1-Ethyl-6,8-difluoro=1,4-dihydro-7-(4-methyl-1-piperazinyl)-4-oxo-3-quinolinecarboxylic acid] | MIC [21]: 0.12 µg/mL (≈ 0.342 µM); MIC [22]: 0.5 µg/mL (≈ 1.42 µM); MIC [23]: 0.25 µg/mL (≈ 0.712 µM); MIC [24]: 0.12 µg/mL (≈ 0.342 µM); MIC [25]: 0.25 µg/mL (≈ 0.712 µM); MIC [26]: 0.25 µg/mL (≈ 0.712 µM); MIC [27]: 0.25 µg/mL (≈ 0.712 µM); MIC [28]: 0.25 µg/mL (≈ 0.712 µM); MIC [29]: 2 µg/mL (≈ 5.69 µM); MIC [30]: 2 µg/mL (≈ 5.69 µM)
64 (≈ 143 µM) | 64 (≈ 143 µM) | 64 (≈ 143 µM) | 32 (≈ 71.5 µM) | 32 (≈ 71.5 µM) | 32 (≈ 71.5 µM) | 256 (≈ 572 µM) | 16 (≈ 35.8 µM) | 64 (≈ 143 µM) | 64 (≈ 143 µM) | 64 (≈ 143 µM) | 32 (≈ 71.5 µM) | 32 (≈ 71.5 µM) | 64 (≈ 143 µM) | > 256 | > 256 | > 256 | > 256 | 8 (≈ 17.9 µM) | 4 (≈ 8.94 µM) | CCCCCCOCC1CN(c2cc3c(cc2F)c(=O)c(C(=O)O)cn3CC)CCN1C (stereo not drawn) [Example 78, 1-Ethyl-6-fluoro-7-[3-[(hexyloxy)methyl]-4-methyl-1-piperazinyl]-1,4-dihydro-4-oxo-3-quinolinecarboxylic acid] | MIC [21]: 1 µg/mL (≈ 2.23 µM); MIC [22]: 4 µg/mL (≈ 8.94 µM); MIC [23]: 8 µg/mL (≈ 17.9 µM); MIC [24]: 8 µg/mL (≈ 17.9 µM); MIC [25]: 4 µg/mL (≈ 8.94 µM); MIC [26]: 4 µg/mL (≈ 8.94 µM); MIC [27]: 8 µg/mL (≈ 17.9 µM); MIC [28]: 2 µg/mL (≈ 4.47 µM); MIC [29]: 16 µg/mL (≈ 35.8 µM); MIC [30]: 16 µg/mL (≈ 35.8 µM)
